Reference: ChEMBL document CHEMBL3885861, “Open TG-GATES”

Species on record: Rattus norvegicus
Test: Open TG-GATES - Regimen: Single
Format: toxicity, organism-based, Sprague-Dawley
Set-up: regimen Single, gender Male, age 6 weeks
Conditions: in vivo, po, 0 mg/kg, route gavage, dose level Control; for APTT / Bas / Eos / Fbg / Hb / Ht / Lym / MCH / MCHC / MCV / Mono / Neu / PT / Plat / RBC / Ret / WBC: tissue Blood; for LIVER: tissue Liver; for A/G / ALP / ALT / AST / BUN / CRE / Ca / Cl / DBIL / GLC / IP / K / LDH / Na / PL / RALB / TBIL / TC / TG / TP / gamma-GTP: tissue Plasma

## C=C(C)[C@H]1Cc2c(ccc3c2O[C@@H]2COc4cc(OC)c(OC)cc4[C@@H]2C3=O)O1 [ROTENONE]
3 h
  TERMINAL_BW: 198.4 g
  APTT: 15 s
  Bas: 0%
  Eos: 1%
  Fbg: 207.8 mg/dL
  Hb: 12.6 g/dL
  Ht: 38.3%
  Lym: 76.8%
  MCH: 21 pg
  MCHC: 33%
  MCV: 63.7 fL
  Mono: 5%
  Neu: 17.6%
  PT: 12.1 s
  Plat: 131.6 x10_4/uL
  RBC: 601.6 x10_4/ul
  Ret: 9.8%
  WBC: 98.8 x10_2/uL
  LIVER: 9.4 g
  A/G: 2.3
  ALP: 1432.2 IU/L
  ALT: 35.8 IU/L
  AST: 70.6 IU/L
  BUN: 12.8 mg/dL
  CRE: 0.3 mg/dL
  Ca: 11 mg/dL
  Cl: 104.6 meq/L
  DBIL: 0.01 mg/dL
  GLC: 188.2 mg/dL
  IP: 8.3 mg/dL
  K: 4.4 meq/L
  LDH: 80.6 IU/L
  Na: 140.4 meq/L
  PL: 139.6 mg/dL
  RALB: 3.7 g/dL
  TBIL: 0.04 mg/dL
  TC: 82.8 mg/dL
  TG: 61.2 mg/dL
  TP: 5.3 g/dL
  gamma-GTP: 1 IU/L
6 h
  TERMINAL_BW: 197 g
  APTT: 15.9 s
  Bas: 0%
  Eos: 1%
  Fbg: 218 mg/dL
  Hb: 13.2 g/dL
  Ht: 40.3%
  Lym: 72.2%
  MCH: 21.2 pg
  MCHC: 32.8%
  MCV: 64.5 fL
  Mono: 9%
  Neu: 17.6%
  PT: 12.1 s
  Plat: 122.2 x10_4/uL
  RBC: 625.8 x10_4/ul
  Ret: 8.1%
  WBC: 92.8 x10_2/uL
  LIVER: 8.7 g
  A/G: 2.3
  ALP: 1181 IU/L
  ALT: 35.4 IU/L
  AST: 67 IU/L
  BUN: 9.6 mg/dL
  CRE: 0.4 mg/dL
  Ca: 10.9 mg/dL
  Cl: 103.4 meq/L
  DBIL: 0.01 mg/dL
  GLC: 181.8 mg/dL
  IP: 9 mg/dL
  K: 4.4 meq/L
  LDH: 87 IU/L
  Na: 139.2 meq/L
  PL: 139.8 mg/dL
  RALB: 3.8 g/dL
  TBIL: 0.048 mg/dL
  TC: 81.8 mg/dL
  TG: 82.8 mg/dL
  TP: 5.4 g/dL
  gamma-GTP: 0.4 IU/L
9 h
  TERMINAL_BW: 190.2 g
  APTT: 16 s
  Bas: 0%
  Eos: 1%
  Fbg: 209 mg/dL
  Hb: 13 g/dL
  Ht: 39.4%
  Lym: 74.4%
  MCH: 21.4 pg
  MCHC: 32.9%
  MCV: 64.8 fL
  Mono: 8.4%
  Neu: 16.6%
  PT: 12.2 s
  Plat: 123.2 x10_4/uL
  RBC: 609 x10_4/ul
  Ret: 9.2%
  WBC: 95 x10_2/uL
  LIVER: 8 g
  A/G: 2.5
  ALP: 1388.2 IU/L
  ALT: 33.6 IU/L
  AST: 64.4 IU/L
  BUN: 9.8 mg/dL
  CRE: 0.3 mg/dL
  Ca: 11 mg/dL
  Cl: 104.2 meq/L
  DBIL: 0.01 mg/dL
  GLC: 182.2 mg/dL
  IP: 10.2 mg/dL
  K: 4.1 meq/L
  LDH: 74.6 IU/L
  Na: 140 meq/L
  PL: 134.2 mg/dL
  RALB: 3.8 g/dL
  TBIL: 0.05 mg/dL
  TC: 81.4 mg/dL
  TG: 42.2 mg/dL
  TP: 5.3 g/dL
  gamma-GTP: 1 IU/L
24 h
  TERMINAL_BW: 212.6 g
  APTT: 15.6 s
  Bas: 0%
  Eos: 1%
  Fbg: 220.6 mg/dL
  Hb: 12.6 g/dL
  Ht: 38.4%
  Lym: 69%
  MCH: 21.6 pg
  MCHC: 32.8%
  MCV: 65.9 fL
  Mono: 9.8%
  Neu: 20%
  PT: 12 s
  Plat: 131.2 x10_4/uL
  RBC: 582.6 x10_4/ul
  Ret: 8.3%
  WBC: 108.8 x10_2/uL
  LIVER: 10.1 g
  A/G: 2.5
  ALP: 1476.8 IU/L
  ALT: 48 IU/L
  AST: 75.8 IU/L
  BUN: 18 mg/dL
  CRE: 0.4 mg/dL
  Ca: 11.5 mg/dL
  Cl: 103.8 meq/L
  DBIL: 0.014 mg/dL
  GLC: 181.6 mg/dL
  IP: 7.2 mg/dL
  K: 4.8 meq/L
  LDH: 93.8 IU/L
  Na: 139 meq/L
  PL: 148.4 mg/dL
  RALB: 3.9 g/dL
  TBIL: 0.042 mg/dL
  TC: 81.2 mg/dL
  TG: 123.6 mg/dL
  TP: 5.5 g/dL
  gamma-GTP: 0.6 IU/L
